Key:
human plasma kallikrein = molecular target: T1, human plasma kallikrein (Homo sapiens, UniProt P03952); assay: Determination of the plasma kallikrein activity (fluorogenic peptide substrate, AMC cleavage); format: biochemical; details: plasma kallikrein from Kordia 0.6 nM; substrate H-Pro-Phe-Arg-AMC 10 μM; 30 min at 22° C.; in some cases averages from multiple determinations
T1 construct: purchased Kordia
Experimental: (§1) To determine the plasma kallikrein inhibition of the substances according to the invention, a biochemical test system is used which utilizes the reaction of a peptidic plasma kallikrein substrate to determine the enzymatic activity of human plasma kallikrein. Here, plasma kallikrein cleaves from the peptic plasma kallikrein substrate the C-terminal aminomethylcoumarin (AMC), the fluorescence of which is measured. The determinations are conducted in microtitre plates.
Test substances are dissolved in dimethyl sulfoxide and serially diluted in dimethyl sulfoxide (3000 μM to 0.0078 μM; resulting final concentrations in the test: 50 μM to 0.00013 μM). 1 μl of the diluted substance solutions is placed into each of the wells of white microtitre plates from Greiner (384 wells). 20 μl of assay buffer (50 mM Tris/HCl pH 7.4; 100 mM sodium chloride solution; 5 mM calcium chloride solution; 0.1% of bovine serum albumin) and 20 μl of plasma kallikrein from Kordia (0.6 nM in assay buffer) are then added successively. After 15 min of incubation, the enzyme reaction is started by addition of 20 μl of the substrate H-Pro-Phe-Arg-AMC dissolved in assay buffer (10 μM in assay buffer) from Bachem, the mixture is incubated at room temperature (22° C.) for 30 min and fluorescence is then measured (excitation: 360 nm, emission: 460 nm). The measured emissions of the test batches with test substance are compared to those of control batches without test substance (only dimethyl sulfoxide instead of test substance in dimethyl sulfoxide), and IC50 values are calculated from the concentration/activity relationships. Activity data from this test are given in Table B below (in some cases as averages from multiple individual determinations): […]

human factor XIa = molecular target: T2, human factor XIa (Homo sapiens, UniProt P03951); assay: Measurement of FXIa inhibition (fluorogenic peptide substrate, AMC cleavage); format: biochemical; details: factor XIa from Kordia 0.45 nM; substrate Boc-Glu(OBzl)-Ala-Arg-AMC 10 μM; 30 min at 22° C.; in some cases averages from multiple determinations
T2 construct: purchased Kordia
T2 sequence (P03951 388-625 limits assumed): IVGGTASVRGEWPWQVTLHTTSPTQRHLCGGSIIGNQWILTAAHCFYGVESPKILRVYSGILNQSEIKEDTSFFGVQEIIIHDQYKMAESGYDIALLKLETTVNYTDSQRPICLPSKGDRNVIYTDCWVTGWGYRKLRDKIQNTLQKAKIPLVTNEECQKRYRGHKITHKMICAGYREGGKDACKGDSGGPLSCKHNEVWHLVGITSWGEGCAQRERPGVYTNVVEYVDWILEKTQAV
T2 sequence (P03951 19-387 partner limits assumed): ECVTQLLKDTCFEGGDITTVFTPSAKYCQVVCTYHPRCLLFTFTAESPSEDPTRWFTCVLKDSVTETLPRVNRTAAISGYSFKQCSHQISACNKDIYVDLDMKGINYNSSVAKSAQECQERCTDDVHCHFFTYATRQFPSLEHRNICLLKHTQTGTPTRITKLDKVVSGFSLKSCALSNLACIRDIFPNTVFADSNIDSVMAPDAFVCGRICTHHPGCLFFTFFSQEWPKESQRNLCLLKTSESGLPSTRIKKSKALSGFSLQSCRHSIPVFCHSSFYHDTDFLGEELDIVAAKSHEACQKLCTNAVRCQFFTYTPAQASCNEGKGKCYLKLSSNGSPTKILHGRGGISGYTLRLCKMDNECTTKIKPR
Experimental: as §1, with “The factor XIa” for “To determine the plasma kallikrein”, “invention is determined using” for “invention,”, “system” for “system is used”, “factor XIa” for “plasma kallikrein”, “factor XIa.” for “plasma kallikrein.”
Test substances are dissolved in dimethyl sulfoxide and serially diluted in dimethyl sulfoxide (3000 μM to 0.0078 μM; resulting final concentrations in the test: 50 μM to 0.00013 μM). 1 μl of the diluted substance solutions is placed into each of the wells of white microtitre plates from Greiner (384 wells). 20 μl of assay buffer (50 mM of Tris/HCl pH 7.4; 100 mM of sodium chloride; 5 mM of calcium chloride; 0.1% of bovine serum albumin) and 20 μl of factor XIa from Kordia (0.45 nM in assay buffer) are then added successively. After 15 min of incubation, the enzyme reaction is started by addition of 20 μl of the factor XIa substrate Boc-Glu(OBzl)-Ala-Arg-AMC dissolved in assay buffer (10 μM in assay buffer) from Bachem, the mixture is incubated at room temperature (22° C.) for 30 min and fluorescence is then measured (excitation: 360 nm, emission: 460 nm). The measured emissions of the test batches with test substance are compared to those of control batches without test substance (only dimethyl sulfoxide instead of test substance in dimethyl sulfoxide), and IC50 values are calculated from the concentration/activity relationships. Activity data from this test are given in Table A below (in some cases as averages from multiple individual determinations): […]

T1 sequence (P03952 391-638 limits assumed): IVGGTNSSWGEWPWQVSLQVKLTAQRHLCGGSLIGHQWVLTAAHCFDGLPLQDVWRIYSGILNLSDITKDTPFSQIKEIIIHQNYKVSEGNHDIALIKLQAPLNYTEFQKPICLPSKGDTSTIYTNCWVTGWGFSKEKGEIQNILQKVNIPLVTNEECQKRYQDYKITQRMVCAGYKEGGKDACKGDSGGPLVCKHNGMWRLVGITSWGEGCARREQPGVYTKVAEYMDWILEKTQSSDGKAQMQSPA
T1 sequence (P03952 20-390 partner limits assumed): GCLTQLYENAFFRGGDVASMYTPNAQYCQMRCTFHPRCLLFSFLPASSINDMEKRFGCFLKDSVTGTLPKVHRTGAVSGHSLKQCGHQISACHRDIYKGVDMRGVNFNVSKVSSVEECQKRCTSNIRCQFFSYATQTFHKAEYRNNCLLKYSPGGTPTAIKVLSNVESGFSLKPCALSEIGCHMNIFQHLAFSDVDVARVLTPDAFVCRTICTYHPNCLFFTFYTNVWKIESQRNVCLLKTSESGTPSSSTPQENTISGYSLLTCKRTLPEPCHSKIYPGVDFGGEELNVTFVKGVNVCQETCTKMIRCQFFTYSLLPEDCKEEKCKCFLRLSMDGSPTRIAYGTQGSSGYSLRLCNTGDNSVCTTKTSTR

Row | SMILES | IC50 (human plasma kallikrein) [nM] | IC50 (human factor XIa) [nM]
1 | COCCC(C(=O)Nc1ccc(C(N)=O)c(F)c1)n1cc(OC)c(-c2cc(Cl)ccc2OCC(F)(F)F)cc1=O (racemic) [Example 3, 4-[(2-{4-[5-Chloro-2-(2,2,2-trifluoroethoxy)phenyl]-5-methoxy-2-oxopyridin-1(2H)-yl}-4-methoxybutanoyl)amino]-2-fluorobenzamide] | 100 | 14
2 | COc1cn(C(Cc2ccn(C)n2)C(=O)Nc2ccc(C(=O)O)cc2)c(=O)cc1-c1cc(Cl)ccc1OCC(F)(F)F (single isomer, unassigned) [Example 43, 4-{[2-{4-[5-Chloro-2-(2,2,2-trifluoroethoxy)phenyl]-5-methoxy-2-oxopyridin-1(2H)-yl}-3-(1-methyl-1H-pyrazol-3-yl)propanoyl]amino}benzoic acid] | 9.4 | 0.96
3 | COc1cn(C(CCOC(C)(C)C)C(=O)Nc2ccc(C(N)=O)nc2)c(=O)cc1-c1cc(Cl)ccc1OCC(F)(F)F (racemic) [Example 11, 5-[(4-tert-Butoxy-2-{4-[5-chloro-2-(2,2,2-trifluoroethoxy)phenyl]-5-methoxy-2-oxopyridin-1(2H)-yl}butanoyl)amino]pyridine-2-carboxamide] | 87 | 18
4 | COc1cn(C(CC2=NOCCC2)C(=O)Nc2ccc3nn(C)cc3c2)c(=O)cc1-c1cc(Cl)ccc1OCC(F)(F)F (racemic) [Example 24, 2-{4-[5-Chloro-2-(2,2,2-trifluoroethoxy)phenyl]-5-methoxy-2-oxopyridin-1(2H)-yl}-3-(5,6-dihydro-4H-1,2-oxazin-3-yl)-N-(2-methyl-2H-indazol-5-yl)propanamide] | 130 | 36
5 | COc1cn(C(CCOC2(C)CCC2)C(=O)Nc2ccc(C(=O)O)cc2)c(=O)cc1-c1cc(Cl)ccc1OCC(F)(F)F (racemic) [Example 55, 4-[(2-{4-[5-Chloro-2-(2,2,2-trifluoroethoxy)phenyl]-5-methoxy-2-oxopyridin-1(2H)-yl}-4-[(1-methylcyclobutyl)oxy]butanoyl)amino]benzoic acid] | 32 | 1.8
6 | COc1cn(C(CC2COCCO2)C(=O)Nc2ccc3nn(C)cc3c2)c(=O)cc1-c1cc(Cl)ccc1OCC(F)F (centres unmarked) [Example 33, 2-{4-[5-Chloro-2-(2,2-difluoroethoxy)phenyl]-5-methoxy-2-oxopyridin-1(2H)-yl}-3-(1,4-dioxan-2-yl)-N-(2-methyl-2H-indazol-5-yl)propanamide] | 66 | 5.8
7 | COc1cn(C(C[C@@H]2CCCCO2)C(=O)Nc2ccc(C(=O)O)s2)c(=O)cc1-c1cc(Cl)ccc1OCC(F)(F)F (stereo partly drawn) [Example 72, 5-({2-{4-[5-Chloro-2-(2,2,2-trifluoroethoxy)phenyl]-5-methoxy-2-oxopyridin-1(2H)-yl}-3-[(2S)-tetrahydro-2H-pyran-2-yl]propanoyl}amino)thiophene-2-carboxylic acid] | 24 | 1.6
8 | CCCC(C(=O)Nc1ccc(C(=O)NC)nc1)n1cc(OC)c(-c2cc(Cl)ccc2OCC(F)(F)F)cc1=O (racemic) [Example 66, 5-{[2-{4-[5-Chloro-2-(2,2,2-trifluoroethoxy)phenyl]-5-methoxy-2-oxopyridin-1(2H)-yl}pentanoyl]amino}-N-methylpyridine-2-carboxamide] | 180 | 36
9 | COc1cn(C(CCOC(F)(F)F)C(=O)Nc2ccc(C(N)=O)c(F)c2)c(=O)cc1-c1cc(Cl)ccc1OCC(F)(F)F (racemic) [Example 42, 4-{[2-{4-[5-Chloro-2-(2,2,2-trifluoroethoxy)phenyl]-5-methoxy-2-oxopyridin-1(2H)-yl}-4-(trifluoromethoxy)butanoyl]amino}-2-fluorobenzamide] | 190 | 29
10 | COc1cn(C(CC2COCCO2)C(=O)Nc2ccc(C(=O)O)cc2)c(=O)cc1-c1cc(Cl)ccc1OCC(F)(F)F (single isomer, unassigned) [Example 62, 4-{[2-{4-[5-Chloro-2-(2,2,2-trifluoroethoxy)phenyl]-5-methoxy-2-oxopyridin-1(2H)-yl}-3-(1,4-dioxan-2-yl)propanoyl]amino}benzoic acid] | 15 | 0.52
11 | CNC(=O)c1ccc(NC(=O)C(CCOC)n2cc(OC)c(-c3cc(Cl)ccc3OCC(F)(F)F)cc2=O)cc1F (racemic) [Example 6, 4-[(2-{4-[5-Chloro-2-(2,2,2-trifluoroethoxy)phenyl]-5-methoxy-2-oxopyridin-1(2H)-yl}-4-methoxybutanoyl)amino]-2-fluoro-N-methylbenzamide] | 130 | 19
12 | COc1cn(C(CCOC(C)(C)C)C(=O)Nc2ccc(C(N)=O)c(F)c2)c(=O)cc1-c1cc(Cl)ccc1OCC(F)F (racemic) [Example 26, 4-[(4-tert-Butoxy-2-{4-[5-chloro-2-(2,2-difluoroethoxy)phenyl]-5-methoxy-2-oxopyridin-1(2H)-yl}butanoyl)amino]-2-fluorobenzamide] | 150 | 25
13 | COc1cn(C(CC2COCCO2)C(=O)Nc2ccc(C(N)=O)nc2)c(=O)cc1-c1cc(Cl)ccc1OCC(F)(F)F (centres unmarked) [Example 18, 5-{[2-{4-[5-Chloro-2-(2,2,2-trifluoroethoxy)phenyl]-5-methoxy-2-oxopyridin-1(2H)-yl}-3-(1,4-dioxan-2-yl)propanoyl]amino}pyridine-2-carboxamide] | 55 | 3.2
14 | COc1cn(C(CC2COCCO2)C(=O)Nc2ccc(C(=O)O)cc2)c(=O)cc1-c1cc(Cl)ccc1OCCF (centres unmarked) [Example 44, 4-{[2-{4-[5-Chloro-2-(2-fluoroethoxy)phenyl]-5-methoxy-2-oxopyridin-1(2H)-yl}-3-(1,4-dioxan-2-yl)propanoyl]amino}benzoic acid] | 320 | 3
15 | COc1cn(C(CCOC(F)(F)F)C(=O)Nc2ccc3nn(C)cc3c2)c(=O)cc1-c1cc(Cl)ccc1OCC(F)(F)F (racemic) [Example 38, 2-{4-[5-Chloro-2-(2,2,2-trifluoroethoxy)phenyl]-5-methoxy-2-oxopyridin-1(2H)-yl}-N-(2-methyl-2H-indazol-5-yl)-4-(trifluoromethoxy)butanamide] | 93 | 13
16 | COc1cn(C(C[C@H](C)OC)C(=O)Nc2ccc(C(N)=O)c(F)c2)c(=O)cc1-c1cc(Cl)ccc1OCC(F)(F)F (mixture of isomers) [Example 40, 4-{[(4S)-2-{4-[5-Chloro-2-(2,2,2-trifluoroethoxy)phenyl]-5-methoxy-2-oxopyridin-1(2H)-yl}-4-methoxypentanoyl]amino}-2-fluorobenzamide] | 230 | 19
17 | CCCC(C(=O)Nc1ccc(C(=O)O)cc1)n1cc(OC)c(-c2cc(Cl)ccc2OCC(F)(F)F)cc1=O (racemic) [Example 67, 4-{[2-{4-[5-Chloro-2-(2,2,2-trifluoroethoxy)phenyl]-5-methoxy-2-oxopyridin-1(2H)-yl}pentanoyl]amino}benzoic acid] | 140 | 2.8
18 | COc1cn(C(CCOC2(C)CCC2)C(=O)Nc2ccc3nn(C)cc3c2)c(=O)cc1-c1cc(Cl)ccc1OCC(F)(F)F (racemic) [Example 58, 2-[4-[5-Chloro-2-(2,2,2-trifluoroethoxy)phenyl]-5-methoxy-2-oxo-1-pyridyl]-4-(1-methylcyclobutoxy)-N-(2-methylindazol-5-yl)butanamide] | 57 | 14
19 | COc1cn(C(CCOC(C)(C)C)C(=O)Nc2ccc(C(=O)O)cc2)c(=O)cc1-c1cc(Cl)ccc1OCC(F)(F)F (racemic) [Example 7, 4-[(4-tert-Butoxy-2-{4-[5-chloro-2-(2,2,2-trifluoroethoxy)phenyl]-5-methoxy-2-oxopyridin-1(2H)-yl}butanoyl)amino]benzoic acid] | 34 | 0.71

— patent publication US20180250280A1 (BAYER PHARMA AKTIENGESELLSCHAFT, priority 2015, published 2018)
